Assay results: ChEMBL document CHEMBL6182867, “Discovery of ultra short β-peptoids with selective activity against drug-resistant Mycobacterium tuberculosis” (Eur J Med Chem, 2025)
≈ marks a conversion by molar mass, not a printed value. Calls of active or inactive are those of the source. The rule behind the calls is not given here.

Tests used:
[1] = test system: Mycobacterium tuberculosis; assay: Antitubercular activity against Mycobacterium tuberculosis H37Rv ATCC 27294 by microplate alamar blue assay; format: functional
[2] = test system: Mycobacterium tuberculosis; assay: Antitubercular activity against Mycobacterium tuberculosis H37Rv by microplate alamar blue assay; format: functional
[3] = test system: Mycobacteroides abscessus; assay: Antibacterial activity against Mycobacterium abscessus ATCC 19977 incubated for 3 days by microplate alamar blue assay; format: functional; conditions: ATCC 19977, 72 h, time 3 day
Mycobacteroides chelonae [4] = assay: Antibacterial activity against Mycobacteroides chelonae ATCC 35752 incubated for 3 days by microplate alamar blue assay; format: functional; conditions: ATCC 35752, 72 h, time 3 day
Mycobacterium marinum [5] = assay: Antibacterial activity against Mycobacterium marinum ATCC 927 incubated for 5 days by microplate alamar blue assay; format: functional; conditions: ATCC 927, 120 h, time 5 day
Mycobacterium avium [6] = assay: Antibacterial activity against Mycobacterium avium ATCC 15769 incubated for 6 days by microplate alamar blue assay; format: functional; conditions: ATCC 15769, 144 h, time 6 day
Mycobacterium kansasii [7] = assay: Antibacterial activity against Mycobacterium kansasii ATCC 12478 incubated for 7 days by microplate alamar blue assay; format: functional; conditions: ATCC 12478, 168 h, time 7 day
Enterococcus faecium = assay: Antibacterial activity against Enterococcus faecium by microplate alamar blue assay; format: functional
Staphylococcus aureus = assay: Antibacterial activity against Staphylococcus aureus by microplate alamar blue assay; format: functional
Klebsiella pneumoniae = assay: Antibacterial activity against Klebsiella pneumoniae by microplate alamar blue assay; format: functional
Acinetobacter baumannii = assay: Antibacterial activity against Acinetobacter baumannii by microplate alamar blue assay; format: functional
Pseudomonas aeruginosa = assay: Antibacterial activity against Pseudomonas aeruginosa by microplate alamar blue assay; format: functional
Klebsiella aerogenes = assay: Antibacterial activity against Enterobacter aerogenes by microplate alamar blue assay; format: functional
Candida albicans = assay: Antifungal activity against Candida albicans by microplate alamar blue assay; format: functional
[8] = test system: Mycobacteroides abscessus; assay: Antibacterial activity against Mycobacterium abscessus ATCC 19977 assessed as growth inhibition at 100 ug/ml incubated for 3 days by microplate alamar blue assay relative to control; format: functional; conditions: ATCC 19977, 72 h, time 3 day, read-out: GI
Mycobacteroides chelonae [9] = assay: Antibacterial activity against Mycobacteroides chelonae ATCC 35752 assessed as growth inhibition at 100 ug/ml incubated for 3 days by microplate alamar blue assay relative to control; format: functional; conditions: ATCC 35752, 72 h, time 3 day, read-out: GI
Mycobacterium marinum [10] = assay: Antibacterial activity against Mycobacterium marinum ATCC 927 assessed as growth inhibition at 100 ug/ml incubated for 5 days by microplate alamar blue assay relative to control; format: functional; conditions: ATCC 927, 120 h, time 5 day, read-out: GI
Mycobacterium avium [11] = assay: Antibacterial activity against Mycobacterium avium ATCC 15769 assessed as growth inhibition at 100 ug/ml incubated for 6 days by microplate alamar blue assay relative to control; format: functional; conditions: ATCC 15769, 144 h, time 6 day, read-out: GI
Mycobacterium kansasii [12] = assay: Antibacterial activity against Mycobacterium kansasii ATCC 12478 assessed as growth inhibition at 100 ug/ml incubated for 7 days by microplate alamar blue assay relative to control; format: functional; conditions: ATCC 12478, 168 h, time 7 day, read-out: GI
[13] = test system: Mycobacterium tuberculosis; assay: Antitubercular activity against Mycobacterium tuberculosis KMA 1354 by microplate alamar blue assay; format: functional
[14] = test system: Mycobacterium tuberculosis; assay: Antitubercular activity against Mycobacterium tuberculosis KMA 3899 by microplate alamar blue assay; format: functional
[15] = test system: Mycobacterium tuberculosis; assay: Antitubercular activity against Mycobacterium tuberculosis KMA 4244 by microplate alamar blue assay; format: functional
[16] = test system: Mycobacterium tuberculosis; assay: Antitubercular activity against Mycobacterium tuberculosis KMA 4439 by microplate alamar blue assay; format: functional
[17] = test system: Mycobacterium tuberculosis; assay: Antitubercular activity against Mycobacterium tuberculosis KMA 5282 by microplate alamar blue assay; format: functional
[18] = Cytotoxicity against African green monkey Vero cells measured after 3 days by resazurin dye based fluorescence assay; format: toxicity, cell-based; conditions: African green monkey (Chlorocebus sabaeus)
[19] = test system: Mycobacterium tuberculosis; assay: Bactericidal activity against Mycobacterium tuberculosis H37Rv measured up to 7 days by luminescence assay; format: functional; conditions: time <= 7 day
[20] = test system: Mycobacterium tuberculosis; assay: Antitubercular activity against Mycobacterium tuberculosis H37Rv assessed as post antibiotic affect up to 100 ug/ml measured daily for up to 14 days by luminescence assay; format: functional, organism-based; conditions: dose <= 100.0 µg/ml, time <= 14.0 day
Mitochondrial membrane [21] = assay: Induction of […] membrane potential loss in Mycobacterium tuberculosis H37Rv at <=MIC measured after 15 mins by DiOC2 dye based fluorescence assay; format: cell membranes
Mitochondrial membrane [22] = assay: Induction of […] membrane potential loss in Mycobacterium tuberculosis H37Rv at <=MIC measured after 24 hrs by DiOC2 dye based fluorescence assay; format: cell membranes
[23] = test system: Mycobacterium tuberculosis; assay: Synergistic antitubercular activity against Mycobacterium tuberculosis H37Rv assessed as bedaquiline MIC=>90 at 0.4 ug/ml by microplate alamar blue assay (reference value: 0.05 uM); format: functional; conditions: dose 0.4 µg/ml
[24] = test system: Mycobacterium tuberculosis; assay: Synergistic antitubercular activity against Mycobacterium tuberculosis H37Rv assessed as rifampin MIC=>90 at 0.4 ug/ml by microplate alamar blue assay (reference value: 0.06 uM); format: functional; conditions: dose 0.4 µg/ml
[25] = test system: Mycobacterium tuberculosis; assay: Synergistic antitubercular activity against Mycobacterium tuberculosis H37Rv assessed as isoniazid MIC=>90 at 0.4 ug/ml by microplate alamar blue assay (reference value: 0.12 uM); format: functional; conditions: dose 0.4 µg/ml
[26] = test system: Mycobacterium tuberculosis; assay: Synergistic antitubercular activity against Mycobacterium tuberculosis H37Rv in presence of bedaquiline by microplate alamar blue assay (reference value: 2.59 uM); format: functional
[27] = test system: Mycobacterium tuberculosis; assay: Synergistic antitubercular activity against Mycobacterium tuberculosis H37Rv in presence of rifampin by microplate alamar blue assay (reference value: 2.59 uM); format: functional
[28] = test system: Mycobacterium tuberculosis; assay: Synergistic antitubercular activity against Mycobacterium tuberculosis H37Rv in presence of isoniazid by microplate alamar blue assay (reference value: 2.59 uM); format: functional
[29] = test system: Mycobacterium tuberculosis; assay: Synergistic antitubercular activity against Mycobacterium tuberculosis H37Rv assessed as bedaquiline MIC=>90 at 0.8 ug/ml by microplate alamar blue assay (reference value: 0.05 uM); format: functional; conditions: dose 0.8 µg/ml
[30] = test system: Mycobacterium tuberculosis; assay: Synergistic antitubercular activity against Mycobacterium tuberculosis H37Rv assessed as rifampin MIC=>90 at 0.8 ug/ml by microplate alamar blue assay (reference value: 0.06 uM); format: functional; conditions: dose 0.8 µg/ml
[31] = test system: Mycobacterium tuberculosis; assay: Synergistic antitubercular activity against Mycobacterium tuberculosis H37Rv assessed as isoniazid MIC=>90 at 0.8 ug/ml by microplate alamar blue assay (reference value: 0.12 uM); format: functional; conditions: dose 0.8 µg/ml
[32] = test system: Mycobacterium tuberculosis; assay: Synergistic antitubercular activity against Mycobacterium tuberculosis H37Rv in presence of bedaquiline by microplate alamar blue assay (reference value: 3.08 uM); format: functional
[33] = test system: Mycobacterium tuberculosis; assay: Synergistic antitubercular activity against Mycobacterium tuberculosis H37Rv in presence of rifampin by microplate alamar blue assay (reference value: 3.08 uM); format: functional
[34] = test system: Mycobacterium tuberculosis; assay: Synergistic antitubercular activity against Mycobacterium tuberculosis H37Rv in presence of isoniazid by microplate alamar blue assay (reference value: 3.08 uM); format: functional

**Q.** Which MIC90 [1] does the source give for CC(C)N(C(=O)CCNCCCC1CCCC1)C(C)C here?
**A.** Its MIC90 is 1.48 µg/mL (≈ 5.24 µM).

**Q.** What about the MIC90 [2] of the same compound?
**A.** Its MIC90 is 1.48 µg/mL (≈ 5.24 µM).

**Q.** And the MIC90 [3]?
**A.** Its MIC90 is over 100 µg/mL.

**Q.** And the MIC90 (Mycobacteroides chelonae [4])?
**A.** The MIC90 was over 100 µg/mL.

**Q.** And the MIC90 (Mycobacterium marinum [5])?
**A.** The MIC90 was over 100 µg/mL.

**Q.** And the MIC90 (Mycobacterium avium [6])?
**A.** Its MIC90 is over 100 µg/mL.

**Q.** What about the MIC90 (Mycobacterium kansasii [7]) of the same compound?
**A.** The MIC90 was over 100 µg/mL.

**Q.** What about the MIC90 (Enterococcus faecium) of the same compound?
**A.** Its MIC90 is 49.2 µg/mL (≈ 174 µM).

**Q.** What about the MIC90 (Staphylococcus aureus) of the same compound?
**A.** The MIC90 was 48.1 µg/mL (≈ 170 µM).

**Q.** And the MIC90 (Klebsiella pneumoniae)?
**A.** Its MIC90 is over 100 µg/mL.

**Q.** And the MIC90 (Acinetobacter baumannii)?
**A.** Its MIC90 is over 100 µg/mL.

**Q.** And the MIC90 (Pseudomonas aeruginosa)?
**A.** The MIC90 was over 100 µg/mL.

**Q.** What about the MIC90 (Klebsiella aerogenes) of the same compound?
**A.** The MIC90 was over 100 µg/mL.

**Q.** And the MIC90 (Candida albicans)?
**A.** The MIC90 was 49.6 µg/mL (≈ 176 µM).

**Q.** And the inhibition of growth at 100 µg/mL [8]?
**A.** Its inhibition of growth at 100 µg/mL is 0%.

**Q.** What about the inhibition of growth at 100 µg/mL (Mycobacteroides chelonae [9]) of the same compound?
**A.** Its inhibition of growth at 100 µg/mL is 18%.

**Q.** What about the inhibition of growth at 100 µg/mL (Mycobacterium marinum [10]) of the same compound?
**A.** The inhibition of growth at 100 µg/mL was 26%.

**Q.** And the inhibition of growth at 100 µg/mL (Mycobacterium avium [11])?
**A.** The inhibition of growth at 100 µg/mL was 0%.

**Q.** And the inhibition of growth at 100 µg/mL (Mycobacterium kansasii [12])?
**A.** Its inhibition of growth at 100 µg/mL is 0%.

**Q.** What about the MIC90 [13] of the same compound?
**A.** The MIC90 was 1.8 µg/mL (≈ 6.37 µM).

**Q.** What about the MIC90 [14] of the same compound?
**A.** Its MIC90 is 1.54 µg/mL (≈ 5.45 µM).

**Q.** What about the MIC90 [15] of the same compound?
**A.** The MIC90 was 2.92 µg/mL (≈ 10.3 µM).

**Q.** And the MIC90 [16]?
**A.** The MIC90 was 3.11 µg/mL (≈ 11 µM).

**Q.** What about the MIC90 [17] of the same compound?
**A.** Its MIC90 is 4.37 µg/mL (≈ 15.5 µM).

**Q.** What about the IC50 at 3 days [18] of the same compound?
**A.** The IC50 at 3 days was 69.7 µM.

**Q.** What about the MBC99 [19] of the same compound?
**A.** Its MBC99 is 3020 µg/mL (≈ 10700 µM).

**Q.** And the Activity [20]?
**A.** Its Activity is “inactive”.

**Q.** What about the Activity (Mitochondrial membrane [21]) of the same compound?
**A.** Its Activity is “inactive”.

**Q.** And the Activity (Mitochondrial membrane [22])?
**A.** Its Activity is “inactive”.

**Q.** What about the MIC [23] of the same compound?
**A.** The MIC was 0.04 µM.

**Q.** And the MIC [24]?
**A.** Its MIC is 0.03 µM.

**Q.** What about the MIC [25] of the same compound?
**A.** The MIC was 0.12 µM.

**Q.** What about the MIC [26] of the same compound?
**A.** The MIC was 2.33 µg/mL.

**Q.** And the MIC [27]?
**A.** The MIC was 1.38 µg/mL.

**Q.** And the MIC [28]?
**A.** Its MIC is 2.45 µg/mL.

**Q.** What does the source list for CC(C)N(C(=O)CCNCCC(c1ccccc1)c1ccccc1)C(C)C?
**A.** MIC90 [1]: 3.11 µg/mL (≈ 8.48 µM); MIC90 [2]: 2.97 µg/mL (≈ 8.1 µM); MIC90 [3]: > 100 µg/mL; MIC90 (Mycobacteroides chelonae [4]): > 100 µg/mL; MIC90 (Mycobacterium marinum [5]): > 100 µg/mL; MIC90 (Mycobacterium avium [6]): > 100 µg/mL; MIC90 (Mycobacterium kansasii [7]): > 100 µg/mL; MIC90 (Enterococcus faecium): 95.8 µg/mL (≈ 261 µM); MIC90 (Staphylococcus aureus): 96.5 µg/mL (≈ 263 µM); MIC90 (Klebsiella pneumoniae): > 100 µg/mL; MIC90 (Acinetobacter baumannii): > 100 µg/mL; MIC90 (Pseudomonas aeruginosa): > 100 µg/mL; MIC90 (Klebsiella aerogenes): > 100 µg/mL; MIC90 (Candida albicans): > 100 µg/mL; inhibition of growth at 100 µg/mL [8]: 0%; inhibition of growth at 100 µg/mL (Mycobacteroides chelonae [9]): 74%; inhibition of growth at 100 µg/mL (Mycobacterium marinum [10]): 90%; inhibition of growth at 100 µg/mL (Mycobacterium avium [11]): 0%; inhibition of growth at 100 µg/mL (Mycobacterium kansasii [12]): 0%; MIC90 [13]: 4.58 µg/mL (≈ 12.5 µM); MIC90 [14]: 4.68 µg/mL (≈ 12.8 µM); MIC90 [15]: 6.11 µg/mL (≈ 16.7 µM); MIC90 [16]: 8.79 µg/mL (≈ 24 µM); MIC90 [17]: 8.73 µg/mL (≈ 23.8 µM); IC50 at 3 days [18]: 45.9 µM; MBC99 [19]: 5480 µg/mL (≈ 15000 µM); Activity [20]: inactive; Activity (Mitochondrial membrane [21]): inactive; Activity (Mitochondrial membrane [22]): inactive; MIC [29]: 0.03 µM; MIC [30]: 0.04 µM; MIC [31]: 0.12 µM; MIC [32]: 2.99 µg/mL; MIC [33]: 2.01 µg/mL; MIC [34]: 3.06 µg/mL
